We go through one molecule from PMC5218480 (PLoS ONE, 2017).

The experiment has as its system MV-4-11 cells. The experiment can be described thus: Gene expression microarray analysis (Affymetrix PrimeView) and GSEA. More on the design: RFU PODN (11730768_x_at) / Fold change /veh PODN (11730768_x_at) / RFU LINC00158 (11744669_a_at) / Fold change /veh LINC00158 (11744669_a_at) / RFU DUSP10 (11751237_a_at) / Fold change /veh DUSP10 (11751237_a_at) / RFU ID3 (11757404_x_at) / Fold change /veh ID3 (11757404_x_at) / RFU PLEKHG5 (11737974_s_at) / Fold change /veh PLEKHG5 (11737974_s_at) / RFU LRRC4B (11730491_at) / Fold change /veh LRRC4B (11730491_at) / RFU GIMAP4 (11747438_a_at) / Fold change /veh GIMAP4 (11747438_a_at) / RFU KRT8 (11758183_x_at) / Fold change /veh KRT8 (11758183_x_at) / RFU CNN1 (11734310_a_at) / Fold change /veh CNN1 (11734310_a_at) / RFU VPS37D (11726825_at) / Fold change /veh VPS37D (11726825_at) / RFU C10orf10 (11716522_x_at) / Fold change /veh C10orf10 (11716522_x_at) / RFU KIR2DL2 /// KIR2DL4 /// KIR2DL5A /// KIR2DL5B /// KIR2DS1 /// KIR2DS2 /// KIR2DS3 /// KIR2DS4 /// KIR3DL3 /// KIR3DL3 /// KIR3DS1 (11738374_at) / Fold change /veh KIR2DL2 /// KIR2DL4 /// KIR2DL5A /// KIR2DL5B /// KIR2DS1 /// KIR2DS2 /// KIR2DS3 /// KIR2DS4 /// KIR3DL3 /// KIR3DL3 /// KIR3DS1 (11738374_at) / RFU C1QL1 (11718748_at) / Fold change /veh C1QL1 (11718748_at) / RFU TMPRSS4 (11747572_a_at) / Fold change /veh TMPRSS4 (11747572_a_at) / RFU HAMP (11756126_x_at) / Fold change /veh HAMP (11756126_x_at) / RFU RNFT2 (11725882_a_at) / Fold change /veh RNFT2 (11725882_a_at) / RFU NR4A2 (11747474_a_at) / Fold change /veh NR4A2 (11747474_a_at) / RFU ABCC12 (11746883_a_at) / Fold change /veh ABCC12 (11746883_a_at) / RFU TMEM136 (11760407_x_at) / Fold change /veh TMEM136 (11760407_x_at) / RFU CLDN22 /// WWC2 (11732394_at) / Fold change /veh CLDN22 /// WWC2 (11732394_at) / RFU HLA-DPB1 (11760878_x_at) / Fold change /veh HLA-DPB1 (11760878_x_at) / RFU SPINT1 (11716480_a_at) / Fold change /veh SPINT1 (11716480_a_at) / RFU GAP43 (11754022_s_at) / Fold change /veh GAP43 (11754022_s_at) / RFU A4GNT (11735810_at) / Fold change /veh A4GNT (11735810_at) / RFU PRB3 (11715151_x_at) / Fold change /veh PRB3 (11715151_x_at) / RFU TUBB4B (11761932_at) / Fold change /veh TUBB4B (11761932_at) / RFU CAPN14 (11732068_a_at) / Fold change /veh CAPN14 (11732068_a_at) / RFU TMCC2 (11721928_a_at) / Fold change /veh TMCC2 (11721928_a_at) / RFU IRGQ (11745062_a_at) / Fold change /veh IRGQ (11745062_a_at) / RFU FAM174B (11720279_a_at) / Fold change /veh FAM174B (11720279_a_at) / RFU TMPRSS4 (11748680_a_at) / Fold change /veh TMPRSS4 (11748680_a_at) / RFU FAM212B (11763350_a_at) / Fold change /veh FAM212B (11763350_a_at) / RFU PLEKHG5 (11743358_a_at) / Fold change /veh PLEKHG5 (11743358_a_at) / RFU ZSCAN30 (11745921_a_at) / Fold change /veh ZSCAN30 (11745921_a_at) / RFU CMKLR1 (11741424_a_at) / Fold change /veh CMKLR1 (11741424_a_at) / RFU LOC101060620 /// MAPK8IP1 (11723275_at) / Fold change /veh LOC101060620 /// MAPK8IP1 (11723275_at) / RFU SPTSSB (11747773_x_at) / Fold change /veh SPTSSB (11747773_x_at) / RFU PRSS12 (11739890_at) / Fold change /veh PRSS12 (11739890_at) / RFU BIN1 (11741810_x_at) / Fold change /veh BIN1 (11741810_x_at) / RFU WNT11 (11732464_a_at) / Fold change /veh WNT11 (11732464_a_at) / RFU C10orf10 (11716521_a_at) / Fold change /veh C10orf10 (11716521_a_at) / RFU C5orf56 (11738089_at) / Fold change /veh C5orf56 (11738089_at) / RFU CYB561 (11721691_x_at) / Fold change /veh CYB561 (11721691_x_at) / RFU ANKRD19P (11752326_a_at) / Fold change /veh ANKRD19P (11752326_a_at) / RFU OR2T12 /// OR2T33 /// OR2T8 (11738714_s_at) / Fold change /veh OR2T12 /// OR2T33 /// OR2T8 (11738714_s_at) / RFU VCAN (11748164_a_at) / Fold change /veh VCAN (11748164_a_at) / RFU JSRP1 (11732532_at) / Fold change /veh JSRP1 (11732532_at) / RFU KRTAP10-11 (11738290_x_at) / Fold change /veh KRTAP10-11 (11738290_x_at) / RFU MYO3A (11730013_a_at) / Fold change /veh MYO3A (11730013_a_at) / RFU EBF3 (11725865_a_at) / Fold change /veh EBF3 (11725865_a_at) / RFU CAMK2N1 (11719241_x_at) / Fold change /veh CAMK2N1 (11719241_x_at) / RFU C5orf56 (11738088_a_at) / Fold change /veh C5orf56 (11738088_a_at) / RFU OLFML3 (11715873_a_at) / Fold change /veh OLFML3 (11715873_a_at) / RFU LOC100653217 /// NTM (11731650_a_at) / Fold change /veh LOC100653217 /// NTM (11731650_a_at) / RFU MAPK11 (11762145_a_at) / Fold change /veh MAPK11 (11762145_a_at) / RFU FIZ1 (11724087_x_at) / Fold change /veh FIZ1 (11724087_x_at) / RFU OASL (11726364_x_at) / Fold change /veh OASL (11726364_x_at) / RFU SOX15 (11748057_x_at) / Fold change /veh SOX15 (11748057_x_at) / RFU CD79A (11719716_a_at) / Fold change /veh CD79A (11719716_a_at) / RFU HIST1H1D (11736915_at) / Fold change /veh HIST1H1D (11736915_at) / RFU CASKIN2 (11723855_a_at) / Fold change /veh CASKIN2 (11723855_a_at) / RFU LOC730098 (11760151_x_at) / Fold change /veh LOC730098 (11760151_x_at) / RFU OR4N2 (11742367_at) / Fold change /veh OR4N2 (11742367_at) / RFU PRRT2 (11749266_a_at) / Fold change /veh PRRT2 (11749266_a_at) / RFU SNX32 (11753110_a_at) / Fold change /veh SNX32 (11753110_a_at) / RFU CDHR5 (11726645_a_at) / Fold change /veh CDHR5 (11726645_a_at) / RFU RCAN1 (11760418_a_at) / Fold change /veh RCAN1 (11760418_a_at) / RFU FAM167A (11723789_a_at) / Fold change /veh FAM167A (11723789_a_at) / RFU FAM26E (11764081_at) / Fold change /veh FAM26E (11764081_at) / RFU ISYNA1 (11749810_s_at) / Fold change /veh ISYNA1 (11749810_s_at) / RFU ACY1 (11761880_at) / Fold change /veh ACY1 (11761880_at) / RFU 11764098_at / Fold change /veh 11764098_at / RFU SAMD14 (11745864_x_at) / Fold change /veh SAMD14 (11745864_x_at) / RFU NPB (11741838_a_at) / Fold change /veh NPB (11741838_a_at) / RFU TMPRSS6 (11731388_a_at) / Fold change /veh TMPRSS6 (11731388_a_at) / RFU KRTAP10-2 (11738614_at) / Fold change /veh KRTAP10-2 (11738614_at) / RFU ARHGAP8 /// PRR5-ARHGAP8 (11727945_x_at) / Fold change /veh ARHGAP8 /// PRR5-ARHGAP8 (11727945_x_at) / RFU KRTAP5-7 /// NADSYN1 (11734609_at) / Fold change /veh KRTAP5-7 /// NADSYN1 (11734609_at) / RFU RASL12 (11751679_a_at) / Fold change /veh RASL12 (11751679_a_at) / RFU CDKN2B (11736163_a_at) / Fold change /veh CDKN2B (11736163_a_at) / RFU PRF1 (11729649_at) / Fold change /veh PRF1 (11729649_at) / RFU, ZNF638 /// ZNF638-IT1 / Fold change vs veh, ZNF638 /// ZNF638-IT1 / RFU, PANK3 / Fold change vs veh, PANK3 / RFU, SH3YL1 / Fold change vs veh, SH3YL1 / RFU, ZEB2 / Fold change vs veh, ZEB2 / RFU, NRIP1 / Fold change vs veh, NRIP1 / RFU, PTTG1IP / Fold change vs veh, PTTG1IP / RFU, CAPN2 / Fold change vs veh, CAPN2 / RFU, MED14 / Fold change vs veh, MED14 / RFU, SNORA58 / Fold change vs veh, SNORA58 / RFU, C1orf63 / Fold change vs veh, C1orf63 / RFU, LRRFIP1 / Fold change vs veh, LRRFIP1 / RFU, NDUFAF7 / Fold change vs veh, NDUFAF7 / RFU, SLC12A2 / Fold change vs veh, SLC12A2 / RFU, IBTK / Fold change vs veh, IBTK / RFU, ESF1 / Fold change vs veh, ESF1 / Fold change vs veh, TMEM50B / RFU, TAOK1 / Fold change vs veh, TAOK1 / RFU, ACBD3 / Fold change vs veh, ACBD3 / RFU, TMA16 / Fold change vs veh, TMA16 / RFU, RWDD3 / Fold change vs veh, RWDD3 / RFU, BCAT1 / Fold change vs veh, BCAT1 / RFU, EDEM3 / Fold change vs veh, EDEM3 / RFU, TMEM33 / Fold change vs veh, TMEM33 / RFU, WDR75 / Fold change vs veh, WDR75 / RFU, AHCTF1 / Fold change vs veh, AHCTF1 / RFU, TFRC / Fold change vs veh, TFRC / RFU, ZDHHC17 / Fold change vs veh, ZDHHC17 / RFU, NOM1 / Fold change vs veh, NOM1 / RFU, ARL8B / Fold change vs veh, ARL8B / RFU, ZBTB11 / Fold change vs veh, ZBTB11 / RFU, TAMM41 / Fold change vs veh, TAMM41 / RFU, KIAA1704 /// LOC100996395 / Fold change vs veh, KIAA1704 /// LOC100996395 / RFU, ING1 / Fold change vs veh, ING1 / RFU, TRMT61B / Fold change vs veh, TRMT61B / RFU, FUBP3 / Fold change vs veh, FUBP3 / RFU, TP53 / Fold change vs veh, TP53 / RFU, TNKS2 / Fold change vs veh, TNKS2 / RFU, ZFP14 / Fold change vs veh, ZFP14 / RFU, ACTR2 / Fold change vs veh, ACTR2 / RFU, PPP3R1 / Fold change vs veh, PPP3R1 / RFU, PIK3R1 / Fold change vs veh, PIK3R1 / RFU, HNRNPA1 / Fold change vs veh, HNRNPA1 / RFU, RNF170 / Fold change vs veh, RNF170 / RFU, ZNF28 / Fold change vs veh, ZNF28 / RFU, RNGTT / Fold change vs veh, RNGTT / RFU, OGT / Fold change vs veh, OGT / RFU, BRD1 / Fold change vs veh, BRD1 / RFU, MARS / Fold change vs veh, MARS / RFU, ZNF655 / Fold change vs veh, ZNF655 / RFU, FAHD1 / Fold change vs veh, FAHD1 / RFU, BDP1 / Fold change vs veh, BDP1 / RFU, LRRCC1 / Fold change vs veh, LRRCC1 / RFU, ARID1A / Fold change vs veh, ARID1A / RFU, ZNF146 / Fold change vs veh, ZNF146 / RFU, ZNF330 / Fold change vs veh, ZNF330 / RFU, GPN3 / Fold change vs veh, GPN3 / RFU, C9orf123 / Fold change vs veh, C9orf123 / RFU, N4BP2L2 / Fold change vs veh, N4BP2L2 / RFU, ARFIP1 / Fold change vs veh, ARFIP1 / RFU, FAM179B / Fold change vs veh, FAM179B / RFU, BCL10 / Fold change vs veh, BCL10 / RFU, UHRF1BP1L / Fold change vs veh, UHRF1BP1L / RFU, BET1 / Fold change vs veh, BET1 / RFU, CNOT2 / Fold change vs veh, CNOT2 / RFU, ZNF268 / Fold change vs veh, ZNF268 / Fold change vs veh, ZNF507 / RFU, DGCR2 / Fold change vs veh, DGCR2 / RFU, WDSUB1 / Fold change vs veh, WDSUB1 / Fold change vs veh, HSP90B1 /// MIR3652 / RFU, ADSS / Fold change vs veh, ADSS / RFU, GK / Fold change vs veh, GK / RFU, ZNF148 / Fold change vs veh, ZNF148 / RFU, TAF9 / Fold change vs veh, TAF9 / RFU, SLC1A5 / Fold change vs veh, SLC1A5 / RFU, SLMO2 / Fold change vs veh, SLMO2 / RFU, ABCC4 / Fold change vs veh, ABCC4 / RFU, LOC101060439 /// RAP1B / Fold change vs veh, LOC101060439 /// RAP1B / RFU, RFX7 / Fold change vs veh, RFX7 / RFU, GTPBP10 / Fold change vs veh, GTPBP10 / RFU, CNEP1R1 / Fold change vs veh, CNEP1R1 / RFU, BIVM-ERCC5 /// ERCC5 / Fold change vs veh, BIVM-ERCC5 /// ERCC5 / RFU, ILF3 / Fold change vs veh, ILF3 / RFU 11762660_at / Fold change /veh 11762660_at / RFU VCAN (11757783_s_at) / Fold change /veh VCAN (11757783_s_at) / RFU DDX43 (11728927_at) / Fold change /veh DDX43 (11728927_at) / RFU KRT8 (11758188_x_at) / Fold change /veh KRT8 (11758188_x_at) / RFU NKD1 (11759106_at) / Fold change /veh NKD1 (11759106_at) / RFU SRD5A1 (11742802_a_at) / Fold change /veh SRD5A1 (11742802_a_at) / RFU TPSAB1 /// TPSB2 (11721975_s_at) / Fold change /veh TPSAB1 /// TPSB2 (11721975_s_at) / RFU GSTM3 (11746129_a_at) / Fold change /veh GSTM3 (11746129_a_at) / RFU IL23R (11737362_x_at) / Fold change /veh IL23R (11737362_x_at) / RFU TMEM51 (11727254_a_at) / Fold change /veh TMEM51 (11727254_a_at) / RFU PIWIL2 (11732686_x_at) / Fold change /veh PIWIL2 (11732686_x_at) / RFU ORM1 (11744905_x_at) / Fold change /veh ORM1 (11744905_x_at) / RFU CCDC152 (11743942_at) / Fold change /veh CCDC152 (11743942_at) / RFU ECM1 (11717891_a_at) / Fold change /veh ECM1 (11717891_a_at) / RFU IL23R (11748794_a_at) / Fold change /veh IL23R (11748794_a_at) / RFU TNFAIP8L3 (11732012_x_at) / Fold change /veh TNFAIP8L3 (11732012_x_at) / RFU MBOAT4 (11741988_at) / Fold change /veh MBOAT4 (11741988_at) / RFU 11764193_at / Fold change /veh 11764193_at / RFU TMEM53 (11763286_at) / Fold change /veh TMEM53 (11763286_at) / RFU MAGEB2 (11727129_at) / Fold change /veh MAGEB2 (11727129_at) / RFU TMEM200A (11744735_a_at) / Fold change /veh TMEM200A (11744735_a_at) / RFU CCDC152 (11751479_a_at) / Fold change /veh CCDC152 (11751479_a_at) / RFU FAM211A (11726209_a_at) / Fold change /veh FAM211A (11726209_a_at) / RFU RGS16 (11746705_a_at) / Fold change /veh RGS16 (11746705_a_at) / RFU VCAN (11755009_s_at) / Fold change /veh VCAN (11755009_s_at) / RFU RHOB (11743442_s_at) / Fold change /veh RHOB (11743442_s_at) / RFU RGS16 (11720943_a_at) / Fold change /veh RGS16 (11720943_a_at) / RFU RGS16 (11720944_at) / Fold change /veh RGS16 (11720944_at) / RFU, VPS4B / Fold change vs veh, VPS4B / RFU, CREB1 / Fold change vs veh, CREB1 / RFU, DNAJC13 / Fold change vs veh, DNAJC13 / RFU, GNAQ / Fold change vs veh, GNAQ / RFU, CDK5R1 / Fold change vs veh, CDK5R1 / RFU, ZRANB3 / Fold change vs veh, ZRANB3 / RFU, CUL4A / Fold change vs veh, CUL4A / RFU, CCNY / Fold change vs veh, CCNY / RFU, UFL1 / Fold change vs veh, UFL1 / RFU, COG3 / Fold change vs veh, COG3 / RFU, DIAPH2 / Fold change vs veh, DIAPH2 / RFU, SKA2 / Fold change vs veh, SKA2 / RFU, AFF3 / Fold change vs veh, AFF3 / RFU, LMF1 / Fold change vs veh, LMF1 / RFU, IPO11 / Fold change vs veh, IPO11 / RFU, DFFB / Fold change vs veh, DFFB / RFU, FOXP1 / Fold change vs veh, FOXP1 / RFU, CARD8 / Fold change vs veh, CARD8 / RFU, STRN3 / Fold change vs veh, STRN3 / RFU, ADK / Fold change vs veh, ADK / RFU, RASSF2 / Fold change vs veh, RASSF2 / RFU, WIPF1 / Fold change vs veh, WIPF1 / RFU, LARP1B / Fold change vs veh, LARP1B / RFU, RASA1 / Fold change vs veh, RASA1 / RFU, RB1 / Fold change vs veh, RB1 / RFU, PPFIA1 / Fold change vs veh, PPFIA1 / RFU, MAT2A / Fold change vs veh, MAT2A / RFU, CCT5 / Fold change vs veh, CCT5 / RFU, WDR92 / Fold change vs veh, WDR92 / RFU, CUX1 / Fold change vs veh, CUX1 / RFU, TTC7A / Fold change vs veh, TTC7A / RFU, TMEM135 / Fold change vs veh, TMEM135 / RFU, DEPTOR / Fold change vs veh, DEPTOR / RFU, CPM / Fold change vs veh, CPM / RFU, DNAJB6 / Fold change vs veh, DNAJB6 / RFU, CACNA2D3 / Fold change vs veh, CACNA2D3 / RFU, DTX4 / Fold change vs veh, DTX4 / RFU, TFCP2 / Fold change vs veh, TFCP2 / RFU, GMCL1 /// GMCL1P1 / Fold change vs veh, GMCL1 /// GMCL1P1 / RFU, AEBP2 / Fold change vs veh, AEBP2 / RFU, SNHG1 /// SNORD22 /// SNORD25 /// SNORD26 /// SNORD27 /// SNORD28 /// SNORD29 /// SNORD31 / Fold change vs veh, SNHG1 /// SNORD22 /// SNORD25 /// SNORD26 /// SNORD27 /// SNORD28 /// SNORD29 /// SNORD31 / Fold change (Aza/veh), C12orf56 (ProbeSet 11735607_a_at) / Fold change (ACY-1035/veh), C12orf56 (ProbeSet 11735607_a_at) / Fold change (Aza/veh), FGFR1OP (ProbeSet 11751329_s_at) / Fold change (ACY-1035/veh), FGFR1OP (ProbeSet 11751329_s_at) / Fold change (Aza/veh), VPS36 (ProbeSet 11739960_a_at) / Fold change (ACY-1035/veh), VPS36 (ProbeSet 11739960_a_at) / RFU SYPL1 (11715823_x_at) / Fold change /veh SYPL1 (11715823_x_at) / RFU IGFBP7 (11715501_s_at) / Fold change /veh IGFBP7 (11715501_s_at) / RFU REEP3 (11722064_at) / Fold change /veh REEP3 (11722064_at) / RFU IGLL1 (11728026_x_at) / Fold change /veh IGLL1 (11728026_x_at): dose or concentration left out as unconfirmed. The conditions noted are these: ProbeSet 11719632_a_at; LIST B. The class given is cell-based, human.

Take `Nc1ccc(-c2cccs2)cc1NC(=O)c1ccc2c(c1)cc(C1CC1)n2CCN1CCOCC1` [ACY-1035]: the “RFU, ABCC4” value stood at 40.19 RFU.
